Measured values as given in patent publication US20220274983A1, “JAK KINASE INHIBITOR AND USE THEREOF” (JIANGSU CAREPHAR PHARMACEUTICAL CO., LTD., priority 2019, published 2022).

Key:
JAK1 = JAK1 (Homo sapiens, UniProt P23458); assay: JAK kinase inhibitory activity, HTRF biochemical assay
Description: (§1) The compounds of the above embodiments were applied to the detection and screening of JAK kinase inhibitory activity.
(§2) A corresponding volume of DMSO was added to each well of a first 96-well plate. 20-30 μL of 100-200 μM stock solution of different test compounds were added to each well. The mixture was shaken and mixed for 3 min. All of the compounds were subjected to 3× serial dilution. 60-80 μL Kinase buffer was added to each well of a second 96-well plate, and 1-2 μL of the solution taken from each well of the first 96-well plate was added to the corresponding well of the second 96-well plate. The mixture was shaken and mixed for 3 min. 5 μL of compound dilution taken from each well of the second compound dilution plate was transferred to the corresponding well of a 384-well test plate. 1-2 μL TK Substrate-biotin was added to each well of the test plate. 1-2 μL of enzyme mixture was added to each well. At the same time, a blank well without enzyme was set. 1-2 μL of ATP solution was added to each well, the plate was sealed and reacted at room temperature. The reaction time was as follows: JAK1: 2 h, JAK2: 30 min, JAK3: 30 min, and TYK2: 50 min. 3-5 μL of Streptavidin-XL665 and 3-5 μL of TK Antibody-cryptate were added to each well, the plate was sealed and allowed to stand at room temperature for 30 min to complete the reaction.
(§3) The percentage of inhibition was calculated based on the following formula:
(§4) Inhibition %=[(Ratiomax−Ratiocompound)/(Ratiomax−Ratiomin)]×100%
(§5) Ratiocompound is the HTRF ratio at a given compound concentration, Ratiomin is the HTRF ratio added to the blank well, and Ratiomax is the HTRF ratio without adding the compound. GraphPad Prism 5.0 software was used to plot a sigmoid dose-inhibition rate curve with a non-linear regression model and calculate the IC50 value.

JAK2 = JAK2 (Homo sapiens, UniProt O60674); assay: as above
Description: as §1, §2, §3, §4, §5

Hela cells = assay: Proliferation inhibition based on Hela cells (OSM stimulation, CTG); assay type: cell-based; details: Homo sapiens, OSM stimulation, read-out: IC50 (uM), proliferation inhibitory activity on Hela cells
Description: (§6) 1. Cell plating: cultured cells were collected and counted for viable cells with Vi-Cell XR cell counter. The cell suspension was adjusted to an appropriate concentration with the medium and then added to a 96-well cell culture plate. 50 μL-100 μL of the cell suspension was added to each well of the 96-well cell culture plate. The cell plating density depended on the growth rate of the cells. The cells were cultured in corresponding incubators.
2. Drug Treatment and OSM Stimulation
Firstly, a series of test compound concentration (work solution-1) was prepared using DMSO with 3× gradient dilution, and then it was subjected to fold dilution with RPMI1640+10% FBS to obtain a work solution-2; Cisplatin's work solution-2 was prepared with RPMI1640+10% FBS, and then 1-10 μL solution taken from the work solution-2 was added to the prepared cell wells containing medium. After incubation, 1-10 μL of OSM medium was added to each well and continued to culture. An appropriate CTG solution was added to each well. The mixture was shaken and mixed for 1-5 min and then a luminescence signal was determined with an Envision2104 plate reader.
(§7) Cell Survival Rate Calculation
(§8) T is the luminescence reading of a drug treatment group, and C is the average luminescence reading of a solvent control group.

BaF3 cells = assay: Proliferation inhibition based on BaF3 cells (IL-3 medium, CTG); assay type: cell-based; details: Mus musculus, medium containing IL-3, read-out: IC50 (uM), proliferation inhibitory activity on BaF3 cells
Description: 1. Cell plating: cultured cells were collected with RPMI1640+10% FBS (containing IL-3) medium and counted for viable cells with Vi-Cell XR cell counter. The cell suspension was adjusted to an appropriate concentration with RPMI1640+10% FBS (containing IL-3) medium and then added to a 96-well cell culture plate. A certain amount of cell suspension was added to each well of the 96-well cell culture plate. The cells were cultured in corresponding incubators.
(§9) 2. Drug treatment: a series of test compound concentration (work solution-1) was prepared using DMSO with 3× gradient dilution, and then it was subjected to fold dilution with RPMI1640+10% FBS (containing IL-3) to obtain a work solution-2; Cisplatin's work solution-2 was prepared with RPMI1640+10% FBS (containing IL-3), and then 1-10 μL solution taken from the work solution-2 was added to the prepared cell wells containing medium. The cells were cultured in the corresponding incubators. An appropriate CTG solution was added to each well.
as §7, §8

THP1 cells = assay: Proliferation inhibition based on THP1 cells (IL-4 stimulation, CTG); assay type: cell-based; details: Homo sapiens, THP-1, read-out: IC50 (uM), proliferation inhibitory activity on THP1 cells
Description: as §6, with “80” for “50 μL-100”
as §9, with “treatment and IL-4 stimulation: firstly,” for “treatment:”, “FBS” for “FBS (containing IL-3)”, “FBS,” for “FBS (containing IL-3),”, “incubators. After incubation, 1-10 μL of IL-4 medium was added to each well and continued to culture.” for “incubators.”
Cell Survial Rate Calculation
as §8

rat CIA model [1] = assay: Hindfoot foot volume in rat CIA model; assay type: in vivo, Lewis rats; details: CIA rats, hindfoot, 2 mg/kg oral gavage once daily for 2 w
Description: (§10) Lewis rats (female, 10-12 weeks old) were obtained from Beijing Vital River Laboratory Animal Technology Co., Ltd. The rats were on a light and dark alternation for 12 h, and the environment was kept at a temperature of 23±2° C. and a humidity of 40-70%.
(§11) Type II collagen solution (2 mg/mL) was prepared with 0.05 M acetic acid solution to allow to be fully dissolved, and placed overnight in the dark at 4° C. During the test, 2 mg/mL type II collagen (C II) solution and 4 mg/mL complete Freund's adjuvant (CFA) solution were mixed in equal volumes under ice bath conditions to fully emulsify. On day 0, an emulsion prepared by mixing equal volumes of C II (2 mg/mL) and CFA (4 mg/mL) was injected intracutaneously into the base of the tail of experimental rats for primary immunization, and on day 7, secondary booster immunization was performed.
(§12) The therapeutic effect of the test compound was tested in a rat CIA model. The rats were randomly divided into groups with 8 animals in each group. All animals were immunized on day 0 and boosted on day 7.
(§13) Therefore, the differences in body weight and foot volume after the onset of arthritis compared with the negative group, respectively, can be used to evaluate the therapeutic effect in the rat model. The experimental data were expressed as Mean±SEM; the data between the two groups was tested by unpaired t-test and p<0.05 was considered as a significant difference.

Body weight of CIA rats = details: 2 mg/kg oral gavage once daily for 2 w
Description: as §10, §11, §12, §13

rat CIA model [2] = assay: Arthritis index (AI) of extremities in rat CIA model; details: CIA rats, 2 mg/kg oral gavage once daily for 2 w, score 0-16;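 note: rats immunized with type II collagen plus complete Freund's adjuvant on day 0, boosted day 7, groups of 8, each paw graded 0-4 for swelling or redness, higher means worse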
Description: as §10, §11, §12
Foot volume was scored for the swelling of four toes at the same time, the score for each foot was 0-4, and the highest score for each rat was 16. 0—no swelling, normal appearance; 1—mild swelling or redness of the ankle joint, wrist joint or finger joint; 2—moderate swelling or redness of the ankle joint, wrist joint or finger joint; 3—severe swelling or redness of the ankle joint, wrist joint or finger joint; 4—very severe swelling or redness of the ankle joint, wrist joint or finger joint.

JAK1, sequence (P23458 whole entry, species assumed): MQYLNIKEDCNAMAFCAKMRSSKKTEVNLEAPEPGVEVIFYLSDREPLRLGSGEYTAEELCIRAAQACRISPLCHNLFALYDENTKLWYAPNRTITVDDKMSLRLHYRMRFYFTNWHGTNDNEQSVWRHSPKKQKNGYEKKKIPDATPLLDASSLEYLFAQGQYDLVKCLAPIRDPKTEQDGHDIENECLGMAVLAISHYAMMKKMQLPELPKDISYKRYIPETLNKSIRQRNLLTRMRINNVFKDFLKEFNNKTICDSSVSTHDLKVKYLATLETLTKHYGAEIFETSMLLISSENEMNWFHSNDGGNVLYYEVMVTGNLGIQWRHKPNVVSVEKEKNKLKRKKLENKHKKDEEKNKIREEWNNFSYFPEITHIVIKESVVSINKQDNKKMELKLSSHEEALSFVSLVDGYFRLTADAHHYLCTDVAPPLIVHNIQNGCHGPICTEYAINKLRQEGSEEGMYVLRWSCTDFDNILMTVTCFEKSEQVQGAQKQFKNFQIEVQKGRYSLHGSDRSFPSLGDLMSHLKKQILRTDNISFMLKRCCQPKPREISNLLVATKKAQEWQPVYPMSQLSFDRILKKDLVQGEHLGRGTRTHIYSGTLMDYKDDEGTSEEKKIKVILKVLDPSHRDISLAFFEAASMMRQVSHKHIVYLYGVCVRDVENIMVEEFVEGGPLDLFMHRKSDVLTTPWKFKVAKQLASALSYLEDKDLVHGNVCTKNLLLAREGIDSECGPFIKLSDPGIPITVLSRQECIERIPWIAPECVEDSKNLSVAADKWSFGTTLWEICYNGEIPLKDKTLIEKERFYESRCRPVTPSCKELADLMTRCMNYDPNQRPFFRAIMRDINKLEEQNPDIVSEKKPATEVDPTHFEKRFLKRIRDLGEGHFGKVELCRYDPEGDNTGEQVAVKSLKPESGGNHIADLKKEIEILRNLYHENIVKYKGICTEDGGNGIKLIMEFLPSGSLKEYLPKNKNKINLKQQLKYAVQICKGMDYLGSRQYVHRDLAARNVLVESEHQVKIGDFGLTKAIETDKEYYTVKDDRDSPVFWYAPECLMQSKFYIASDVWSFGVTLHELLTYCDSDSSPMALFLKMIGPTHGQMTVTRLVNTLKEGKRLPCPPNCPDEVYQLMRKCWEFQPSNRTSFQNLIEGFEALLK
JAK2, sequence (O60674 whole entry, species assumed): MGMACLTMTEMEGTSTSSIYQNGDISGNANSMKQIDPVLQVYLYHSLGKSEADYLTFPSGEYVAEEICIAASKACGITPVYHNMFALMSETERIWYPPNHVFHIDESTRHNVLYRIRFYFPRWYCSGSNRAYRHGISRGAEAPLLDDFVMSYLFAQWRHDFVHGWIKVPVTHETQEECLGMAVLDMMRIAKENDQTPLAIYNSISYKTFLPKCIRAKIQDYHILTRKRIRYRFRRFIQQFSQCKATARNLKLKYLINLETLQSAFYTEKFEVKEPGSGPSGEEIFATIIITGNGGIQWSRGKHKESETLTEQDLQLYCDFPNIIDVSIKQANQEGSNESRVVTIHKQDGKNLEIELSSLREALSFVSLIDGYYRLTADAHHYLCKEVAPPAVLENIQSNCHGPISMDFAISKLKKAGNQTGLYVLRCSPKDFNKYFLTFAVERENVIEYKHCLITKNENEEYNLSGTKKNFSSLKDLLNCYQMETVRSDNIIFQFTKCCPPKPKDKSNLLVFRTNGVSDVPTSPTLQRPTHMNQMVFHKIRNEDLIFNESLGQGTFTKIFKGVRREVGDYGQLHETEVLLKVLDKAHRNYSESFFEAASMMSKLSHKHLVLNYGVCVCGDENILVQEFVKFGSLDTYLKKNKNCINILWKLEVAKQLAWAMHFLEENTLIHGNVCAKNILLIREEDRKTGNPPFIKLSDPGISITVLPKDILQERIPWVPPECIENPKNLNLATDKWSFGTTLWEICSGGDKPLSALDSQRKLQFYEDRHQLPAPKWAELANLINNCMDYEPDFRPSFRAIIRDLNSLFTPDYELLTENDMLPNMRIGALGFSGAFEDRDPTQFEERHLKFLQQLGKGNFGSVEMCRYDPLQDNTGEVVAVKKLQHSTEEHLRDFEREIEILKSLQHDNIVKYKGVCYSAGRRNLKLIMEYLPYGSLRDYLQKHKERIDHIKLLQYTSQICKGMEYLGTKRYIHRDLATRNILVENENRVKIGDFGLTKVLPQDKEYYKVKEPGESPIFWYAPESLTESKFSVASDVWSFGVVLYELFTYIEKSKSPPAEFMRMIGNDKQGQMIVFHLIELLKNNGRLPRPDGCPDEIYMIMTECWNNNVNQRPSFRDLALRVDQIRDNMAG

In the case of `O=C(Nc1nc2cccc(-c3ccc(CN4CCS(=O)(=O)CC4)s3)n2n1)[C@H]1C[C@H]1F` (relative stereo) [EXP-5, N-[5-[4-[(1,1-dioxothiomorpholine)methyl]thienyl]-[1,2,4]triazolo[1,5-a]pyridin-2-yl]-cis-2-fluoro-cyclopropanecarboxamide], the IC50 (JAK1) is reported as 50 to 500 nM, the IC50 (JAK2) is reported as 50 to 500 nM and the IC50 (Hela cells) is reported as 5 to 30 µM. The IC50 (BaF3 cells) was less than 5 µM and the IC50 (THP1 cells) was less than 5 µM.

In the case of `O=C(Nc1nc2cccc(-c3ccc(CN4CCC(F)(F)CC4)s3)n2n1)[C@H]1C[C@@H]1F` (relative stereo) [EXP-12, trans-N-[5-[5-[(4,4-difluoro-1-piperidinyl)methyl]-2-thienyl]-[1,2,4]triazolo[1,5-a]pyridin-2-yl]-2-fluorocyclopropanecarboxamide], the IC50 (JAK1) is reported as 50 to 500 nM.

In the case of `O=C(Nc1nc2cccc(-c3ccc(CN4CCC(OC(F)(F)F)CC4)s3)n2n1)[C@H]1C[C@@H]1F` (relative stereo) [EXP-19], the IC50 (JAK1) is reported as greater than 500 nM.

`Cc1cc(-c2cccc3nc(NC(=O)C4CC4)nn23)sc1CN1CCS(=O)(=O)CC1` [EXP-2] showed an IC50 (JAK1) of 50 to 500 nM, an IC50 (JAK2) of 50 to 500 nM and an IC50 (Hela cells) of less than 5 µM. The IC50 (BaF3 cells) was less than 5 µM and the IC50 (THP1 cells) was less than 5 µM.

Molecule `O=C(Nc1nc2cccc(-c3cnc(CN4CCS(=O)(=O)CC4)s3)n2n1)C1CC1` [EXP-4, N-[5-[2-[(1,1-dioxo-1,4-thiazine-4-)methyl]thiazol-5-]-[1,2,4]triazolo[1,5-a]pyridine-2-]cyclopropylcarboxamide] has an IC50 (JAK1) greater than 500 nM, an IC50 (Hela cells) of 5 to 30 µM and an IC50 (BaF3 cells) of 5 to 30 µM. It also gave an IC50 (THP1 cells) of 5 to 30 µM.

Work on `CC1(C(=O)Nc2nc3cccc(-c4ccc(CN5CCS(=O)(=O)CC5)s4)n3n2)CC1(F)F` (stereo not drawn) [EXP-7] yielded an IC50 (JAK1) greater than 500 nM and an IC50 (JAK2) greater than 500 nM.

With `O=C(Nc1nc2cccc(-c3ccc(CN4CCS(=O)(=O)CC4)s3)n2n1)[C@H]1C[C@H]1C(F)(F)F` [EXP-8] the IC50 (JAK1) was greater than 500 nM and the IC50 (JAK2) was greater than 500 nM.

`O=C(Nc1nc2cccc(-c3ccc(CN4CCS(=O)(=O)CC4)s3)n2n1)[C@@H]1C[C@H]1C(F)(F)F` [EXP-9] showed an IC50 (JAK1) of 50 to 500 nM and an IC50 (JAK2) of 50 to 500 nM.

Work on `O=C(Nc1nc2cccc(-c3ccc(CN4CCS(=O)(=O)CC4)s3)n2n1)C1(F)CC1` [EXP-10] yielded an IC50 (JAK1) greater than 500 nM.

Molecule `O=C(Nc1nc2cccc(-c3ccc(CN4CCC(C(F)(F)F)CC4)s3)n2n1)[C@H]1C[C@@H]1F` [EXP-11] has an IC50 (JAK1) of 50 to 500 nM and an IC50 (JAK2) of 50 to 500 nM.

Molecule `Cc1cc(-c2cccc3nc(NC(=O)C4CC4)nn23)sc1CN1CCC(F)(F)CC1` [EXP-13] has an IC50 (JAK1) of 30 to 50 nM and an IC50 (JAK2) of 30 to 50 nM.

`O=C(Nc1nc2cccc(-c3nnc(CN4CCS(=O)(=O)CC4)s3)n2n1)C1CC1` [EXP-14, N-[5-[5-[(1,1-dioxo-1,4-thiazin-4-)methyl]-1,3,4-thiadiazol-2-]-[1,2,4]triazolo[1,5-a]pyridine-2-]cyclopropylcarboxamide] showed an IC50 (JAK1) greater than 500 nM and an IC50 (JAK2) greater than 500 nM.

`O=C(Nc1nc2cccc(-c3nnc(CN4CCS(=O)(=O)CC4)o3)n2n1)C1CC1` [EXP-15, N-[5-[5-[(1,1-dioxo-1,4-thiazin-4-)methyl]-1,3,4-oxadiazole-2-]-[1,2,4]triazolo[1,5-a]pyridine-2-]cyclopropylcarboxamide] gave an IC50 (JAK1) greater than 500 nM.

Molecule `O=C(Nc1nc2cccc(-c3ccc(COCCc4cn[nH]c4)s3)n2n1)C1CC1` [EXP-16, N-[5-[5-[2-(1H-pyrazol-4-yl)-ethoxymethyl]-2-thienyl]-[1,2,4]triazolo[1,5-a]pyridin-2-yl]cylopropanecarboxamide] has an IC50 (JAK1) greater than 500 nM.

In the case of `O=C(NCCc1nccs1)c1ccc(-c2cccc3nc(NC(=O)C4CC4)nn23)s1` [EXP-17, 5-[2-[2-thiazole-2-ethyl]carboxamido]-thiophene-[1,2,4]triazolo[1,5-a]pyridine-2-cyclopropanecarboxamide], the IC50 (JAK1) is reported as greater than 500 nM.

With `O=C(NCCc1nccs1)c1cc(-c2cccc3nc(NC(=O)C4CC4)nn23)cs1` [EXP-18] the IC50 (JAK1) was 50 to 500 nM and the IC50 (JAK2) was 50 to 500 nM.

For `CC[C@@H]1CN(C(=O)NCC(F)(F)F)C[C@@H]1c1cnc2cnc3[nH]ccc3n12` [Upadacitinib, upadacitinib, reference compound], the “Foot volume (ml)/Day” value (rat CIA model [1]; day 0) was 2.611 ± 0.022 mL, the “Foot volume (ml)/Day” value (rat CIA model [1]; day 8) was 2.599 ± 0.020 mL and the “Foot volume (ml)/Day” value (rat CIA model [1]; day 11) was 2.738 ± 0.110 mL. The “Foot volume (ml)/Day” value (rat CIA model [1]; day 14) was 3.675 ± 0.314 mL, the “Foot volume (ml)/Day” value (rat CIA model [1]; day 17) was 4.126 ± 0.301 mL and the “Foot volume (ml)/Day” value (rat CIA model [1]; day 21) was 4.591 mL. For the same molecule, the “Foot volume (ml)/Day” value (rat CIA model [1]; day 24) was 4.403 mL, the “Foot volume (ml)/Day” value (rat CIA model [1]; day 28) was 3.990 mL and the “Body weight (g)/Day” value (Body weight of CIA rats; day 0) was 172.3 ± 1.8 g. For the same molecule, the “Body weight (g)/Day” value (Body weight of CIA rats; day 8) was 170.4 ± 2.1 g, the “Body weight (g)/Day” value (Body weight of CIA rats; day 11) was 169.4 ± 2.8 g and the “Body weight (g)/Day” value (Body weight of CIA rats; day 14) was 170 ± 2.2 g. For the same molecule, the “Body weight (g)/Day” value (Body weight of CIA rats; day 17) was 170.8 ± 3.3 g, the “Body weight (g)/Day” value (Body weight of CIA rats; day 21) was 168.6 ± 2.9 g and the “Body weight (g)/Day” value (Body weight of CIA rats; day 24) was 165.9 ± 2.9 g. For the same molecule, the “Body weight (g)/Day” value (Body weight of CIA rats; day 28) was 170.5 ± 3.1 g, the “Arthritis index/Day” value (rat CIA model [2]; day 0) was 0 ± 0 and the “Arthritis index/Day” value (rat CIA model [2]; day 8) was 0 ± 0. The “Arthritis index/Day” value (rat CIA model [2]; day 11) was 0.63 ± 0.38, the “Arthritis index/Day” value (rat CIA model [2]; day 14) was 3.50 ± 0.73 and the “Arthritis index/Day” value (rat CIA model [2]; day 17) was 5.50 ± 1.00. For the same molecule, the “Arthritis index/Day” value (rat CIA model [2]; day 21) was 9.00 ± 1.07 and the “Arthritis index/Day” value (rat CIA model [2]; day 24) was 9.38 ± 0.71.
